Reference: patent US11571446B2, “Gut microbiota and treatment of cancer” (Sanford Burnham Prebys Medical Discovery Institute, priority 2016, dated 2023)
“Also recorded” adds a separate entry of the source.

Experiments:
tumor growth [1] = assay: Tumor growth in Rnf5−/− mice treated with chemical chaperone; type: in vivo, mouse; details: treatment to alleviate ER stress
Source text: To understand the mechanism by which altered function of Rnf5^−/− mice might influence the anti-tumor immune response, changes in the intestinal epithelial cells (IECs) were examined, which cells play critical roles in both innate and adaptive immunity.

tumor growth [2] = assay: Fecal microbiota analysis of Rnf5−/− and WT tumor bearing mice; type: in vivo, mouse; details: Rnf5−/− vs WT microbiota
Method: The fecal microbiota of Rnf5^−/− and WT mice were analyzed. […] Of those, increased relative abundance of several bacterial taxa (including Bacteroides spp., B. acidifaciens, B. chinchilla, B. xylanisolvens, Parabacteroides merdae, Porphyromonas canis, Rickenella microfusus) and decreased abundance of others (including unclassified Bifidobacterium spp., B. choerinum, Odoribacter denticanis, Parabacteroides goldsteinii, unclassified Olivibacter, Parapedobacter koreensis) typified the microbiome of Rnf5^−/− mice bearing tumors, compared with the WT genotype.
The fecal microbiota of Rnf5−/− and WT mice were further analyzed. Marked differences in the microbial profiles were observed, highlighting differences in community structure depicted in principle component analysis that distinctly segregated Rnf5^−/− from WT microbiota. Analysis of microbiota allowed the identification of 42 phylotypes that distinguished Rnf5^−/− and WT microbiota in tumor bearing mice (FIG. 7). These phylotypes are dominated by a few taxonomic groups, the largest of which fall into the Clostridium cluster (37%). All but four of these may be assigned to Clostrium cluster IV or XIVa, known to be capable of producing butyrate that may influence Foxp3^+ Treg cells expansion. […]

YUMM1.5 melanoma cells = assay: YUMM1.5 melanoma tumor growth in WT or Rnf5−/− mice given mucin or inulin; type: in vivo, mouse; details: 3% mucin in drinking water or 15% inulin diet from 14 days prior to tumor inoculation
Source text: (§1) FIG. 4A depicts plots of human fecal samples cultivated under anaerobic conditions in chemically defined medium with or without exogenous carbohydrate (n=6). Relative abundance of taxa encoding extensive glycosyl hydrolase activities. Cultures with no exogenous sugar were compared to cultures with N-acetyl-mannosamine, galactomannan and porcine gastric mucin. […] FIG. 4C depicts computer simulation identifies the uptake rates of mucin and inulin degradation products in the 2 media predicted to sustain the WT and Rnf5^−/− communities, showing higher predicted consumption of mucin and inulin products in the Rnf5^−/− community. FIG. 4D depicts YUMM1.5 tumor growth in WT or Rnf5^−/− mice provided with 0 or 3% mucin in drinking water starting 14 days prior to tumor inoculation (n=15). FIG. 4E depicts growth of Yumm1.5 tumors in WT or Rnf5^−/− received a control diet or a diet enriched 15% inulin 14 days prior to and during tumor inoculation (n=15). FIG. 4F depicts fold-changes of median abundances between Rnf5^−/−, mucin and inulin treated and WT mice, for 30 taxa that discriminate tumor attenuating and non-attenuating phenotypes.
To test this directly it was investigated whether administration of mucin to WT mice could phenocopy Rnf5^−/− mice, in terms of tumor growth, immune response and gut microbiota composition. […]

SW1 cells = assay: Growth of SW1 melanoma in TLR4 mutant C3H/HeJ mice given mucin or inulin; type: in vivo, mouse
Source text: (§2) FIG. 6A depicts growth of SW1 TLR4-mutant tumor cells in C3H/HeJ TLR4 mutant mice provided with control diet, alone or with supplemented mucin or inulin starting 14 days prior to tumor inoculation (n=10). FIG. 6B depicts growth of MC-38 tumors in C57BL/6 mice (n=10) that received, starting 14 days prior to tumor inoculation, control diet, alone or with supplemented mucin or inulin. FIG. 6C depicts tumor volume in C57BL/6 mice (n=10 per group) injected (s.c.) with a melanoma cell line (N-Ras mutant; 1×10^6 cells). The mice were provided control or inulin or mucin supplemented diet. When tumors reached a volume of […], mice were treated with MEKi (PD325901) administered by gavage (10 mg/kg, daily), alone or in combination with inulin or mucin, as indicated. Tumor volume was assessed every 4 days.
To determine whether TLR4, the receptor for bacterial lipopolysaccharides, might be involved in the mucin-induced anti-tumor immune phenotype, the growth of mouse melanoma SW1 cells was examined in Tlr4^−/− C3H/HeJ mice.

[3] = tested on: tumor-infiltrating immune cells; assay: Tumor-infiltrating immune cells and immune gene transcription in mucin- or inulin-fed mice; type: in vivo, mouse
Source text: To test this directly it was investigated whether administration of mucin to WT mice could phenocopy Rnf5^−/− mice, in terms of tumor growth, immune response and gut microbiota composition. […] This prompted us to use machine learning to identify phylotypes that best distinguished WT (non-attenuated tumor growth) from Rnf5^−/− and WT mice treated with mucin or inulin (attenuated tumor growth). […] The immune status of mucin and inulin-fed WT mice also shifted to resemble that of Rnf5′ mice.

human fecal samples = assay: Anaerobic cultivation of fecal samples with a sole carbohydrate source; type: cell-based; details: in vitro, unpublished results
Source text: as §1
The differences in the gut microbiota of Rnf5^−/− and WT mice before and during tumor formation highlighted a functionally coherent group of species that define a food web enriched for species encoding extensive glycosyl hydrolase activities. […]

MC-38 cells = assay: Growth of MC-38 colon cancer tumors in C57BL/6 mice given mucin or inulin; type: in vivo, mouse
Source text: as §2
Next, it was determined whether mucin or inulin are also able to impact growth of colon cancer cells, representative of a different tumor type. Growth of MC-38 cells injected to WT mice was attenuated by inulin but not mucin (FIG. 6B). […] Corresponding increase in CD4, CD8, CD45 and DC, including pDC and mDC and MHC-I expression on DC, was identified in tumors subjected to the MEKi+inulin treatment.

Compound: O=C(O)CCCc1ccccc1 [4-phenylbutyrate]
- tumor growth (tumor growth [1]): did not affect tumor growth

Compound: Clostridium clostridioforme
- association of bacterial strain with tumor growth (tumor growth [2]): associated with inhibition of tumor growth

Compound: inulin
- melanoma tumor growth (YUMM1.5 melanoma cells): attenuate melanoma growth; also recorded: reduced tumor growth
- melanoma tumor growth (YUMM1.5 melanoma cells; listed as Inulin): effective inhibition of melanoma growth
- melanoma growth (SW1 cells; SW1 cells in Tlr4−/− C3H/HeJ mice, supplemented diet from 14 days prior to inoculation): failed to significantly attenuate melanoma growth
- CD8+ T cells and TNF-α-producing tumor-infiltrating CD4+ T cells (SW1 cells; SW1 tumors in Tlr4−/− C3H/HeJ mice): not
- tumor infiltrating immune cell phenotype ([3]; WT mice, tumor): increased tumor infiltration of immune cells
- transcription of immune-related genes ([3]; shift to that seen in Rnf5−/− mice, albeit to a lower extent): induced a shift
- communities generated in fecal cultivation (human fecal samples): generated communities similar to that of gastric mucin
- infiltration of MHC-I and MHC-I on DC cells (MC-38 cells; MC-38 tumors): increase in the infiltration
- growth of MC-38 cells (MC-38 cells; WT C57BL/6 mice, supplemented diet from 14 days prior to inoculation): attenuated
